# Laboratory results as given in US20040039027A1, “Benzimidazole compounds, process for producing the same and use thereof” (priority 2000, published 2004).
# Assay: Stability test in artificial gastric juice
# Assay type: physicochemical
# Details: artificial gastric juice with acetonitrile, pH 1.2, artificial gastric juice pH ca. 1.2 with acetonitrile, 37° C.; calculated assuming pseudo-first-order decomposition
# Protocol: Stability Test in Artificial Gastric Juice
# 2-[[[3-Methyl-4-(2,2,2-trifluoroethoxy)-2-pyridyl]methyl]sulfinyl]-1H-benzimidazole(lansoprazole) and the compounds (ca. 1-2 mg) of Examples 1, 2 and 18 were respectively dissolved in acetonitrile (1 mL). To each solution (0.2 mL) were added acetonitrile (1 mL) and artificial gastric juice (3 mL, a solution prepared by dissolving sodium chloride (2.0 g) in hydrochloric acid (7.0 mL) and adding water to the amount of 1000 mL, pH ca. 1.2), and the stability of each compound after preservation at 37° C. was examined. Samples were taken immediately after addition of acetonitrile and artificial gastric juice, and 4, 8, 12, 16 and 20 hours thereafter, analyzed under the following HPLC analysis conditions, and the half-life was calculated on the assumption that the decomposition of the compound was a pseudo-first-order reaction. […]
# detection wavelength: UV 285 nm column: YMC Pro C18 75 mm×4.6 mm I.D. mobile phase: the proportion of mobile phase A (0.01 mol/L aqueous ammonium acetate solution) and mobile phase B (acetonitrile) was changed with the lapse of time as in the following.
# 10 min. from immediately after addition: mobile phase A/mobile phase B=60/40→10/90 10 min. to 15 min.: mobile phase A/mobile phase B=10/90
# 15.1 min. to 20 min.: mobile phase A/mobile phase B=60/40 flow rate: 1.0 mL/min. column temperature: 25° C.
row,half-life,SMILES
1,≥ 240 min,"CCCOC(=O)OCn1c([S+]([O-])Cc2nccc(OCC(F)(F)F)c2C)nc2ccccc21 (stereo not drawn) [Example 18, [2-[[[3-Methyl-4-(2,2,2-trifluoroethoxy)-2-pyridinyl]methyl]sulfinyl]-1H-benzimidazol-1-yl]methyl propyl carbonate]"
2,< 1.8 min,"Cc1c(OCC(F)(F)F)ccnc1C[S+]([O-])c1nc2ccccc2[nH]1 (stereo not drawn) [lansoprazole, 2-[[[3-Methyl-4-(2,2,2-trifluoroethoxy)-2-pyridyl]methyl]sulfinyl]-1H-benzimidazole, reference compound]"
3,≥ 240 min,"Cc1c(OCC(F)(F)F)ccnc1C[S+]([O-])c1nc2ccccc2n1COC(=O)c1ccccc1 (stereo not drawn) [Example 1, [2-[[[3-Methyl-4-(2,2,2-trifluoroethoxy)-2-pyridinyl]methyl]sulfinyl]-1H-benzimidazol-1-yl]methyl benzoate]"
